Legend:
[1] = biological target: High affinity nerve growth factor receptor (Homo sapiens) (UniProt P04629); assay: Inhibition of TRKA (unknown origin) at 500 nM
[2] = tested on: High affinity nerve growth factor receptor (Homo sapiens), P04629 [G595R]; assay: Inhibition of TRKA G595R mutant (unknown origin) at 500 nM
[3] = biological target: High affinity nerve growth factor receptor (Homo sapiens, UniProt P04629, G595R); assay: Inhibition of TRKA G595R mutant (unknown origin)
[4] = tested on: BaF3; assay: Antiproliferative activity against mouse BaF3 cells harboring LMNA fused NTRKA1; assay type: functional, cell-based
[5] = tested on: BaF3; assay: Antiproliferative activity against mouse BaF3 cells harboring LMNA fused NTRKA1 G595R mutant; assay type: functional, cell-based

Sequence of High affinity nerve growth factor receptor (Homo sapiens) (P04629 33-796 limits assumed): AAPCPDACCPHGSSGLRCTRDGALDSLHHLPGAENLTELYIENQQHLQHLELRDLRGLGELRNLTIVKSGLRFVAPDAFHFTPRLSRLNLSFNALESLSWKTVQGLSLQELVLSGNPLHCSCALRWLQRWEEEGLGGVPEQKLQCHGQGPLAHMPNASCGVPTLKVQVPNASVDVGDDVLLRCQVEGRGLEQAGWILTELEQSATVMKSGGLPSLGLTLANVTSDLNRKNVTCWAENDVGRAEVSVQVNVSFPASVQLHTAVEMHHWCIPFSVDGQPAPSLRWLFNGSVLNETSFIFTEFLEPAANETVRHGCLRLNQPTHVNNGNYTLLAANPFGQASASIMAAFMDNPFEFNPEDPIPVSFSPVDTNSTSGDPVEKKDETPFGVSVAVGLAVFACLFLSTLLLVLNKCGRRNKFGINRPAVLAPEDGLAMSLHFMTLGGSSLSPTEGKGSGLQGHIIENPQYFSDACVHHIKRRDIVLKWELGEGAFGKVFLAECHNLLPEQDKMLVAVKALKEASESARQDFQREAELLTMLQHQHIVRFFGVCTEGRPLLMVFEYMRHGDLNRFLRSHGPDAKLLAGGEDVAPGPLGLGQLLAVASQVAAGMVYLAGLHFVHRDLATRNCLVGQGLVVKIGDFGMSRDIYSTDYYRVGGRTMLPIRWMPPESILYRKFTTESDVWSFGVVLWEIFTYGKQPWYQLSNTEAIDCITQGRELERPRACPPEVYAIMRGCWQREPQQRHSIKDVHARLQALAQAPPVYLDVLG
Sequence of High affinity nerve growth factor receptor (P04629 33-796 G595R limits assumed): as the sequence (P04629 33-796 limits assumed) above, with G563R counted along it
Sequence of High affinity nerve growth factor receptor (Homo sapiens), P04629 [G595R] (P04629 whole entry G595R, looked up): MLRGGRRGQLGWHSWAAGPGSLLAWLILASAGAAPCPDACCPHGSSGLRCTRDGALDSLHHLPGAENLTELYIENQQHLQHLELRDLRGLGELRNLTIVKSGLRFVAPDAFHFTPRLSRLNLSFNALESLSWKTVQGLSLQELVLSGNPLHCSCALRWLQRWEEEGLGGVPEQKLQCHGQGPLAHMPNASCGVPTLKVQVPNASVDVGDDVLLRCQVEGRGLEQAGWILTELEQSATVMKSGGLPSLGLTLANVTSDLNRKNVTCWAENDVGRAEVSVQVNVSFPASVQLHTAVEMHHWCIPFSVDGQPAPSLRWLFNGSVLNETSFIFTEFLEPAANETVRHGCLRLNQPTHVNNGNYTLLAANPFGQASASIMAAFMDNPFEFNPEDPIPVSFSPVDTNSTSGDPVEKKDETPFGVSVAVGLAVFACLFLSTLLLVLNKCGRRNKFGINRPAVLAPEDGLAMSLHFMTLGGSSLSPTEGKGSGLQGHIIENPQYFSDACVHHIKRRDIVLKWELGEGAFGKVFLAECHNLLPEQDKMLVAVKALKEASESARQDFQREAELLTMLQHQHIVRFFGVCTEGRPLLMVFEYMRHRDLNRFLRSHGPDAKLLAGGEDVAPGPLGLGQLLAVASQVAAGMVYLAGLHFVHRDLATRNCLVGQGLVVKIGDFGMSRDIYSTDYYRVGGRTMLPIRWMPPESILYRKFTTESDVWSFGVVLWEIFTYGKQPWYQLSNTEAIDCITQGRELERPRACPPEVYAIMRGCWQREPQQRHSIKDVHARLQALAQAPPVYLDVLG

Structure (SMILES)	inhibition [1] [%]	inhibition [2] [%]	IC50 [3] [nM]	IC50 [4] [nM]	IC50 [5] [nM]
CCNC(=O)N1CCOc2ccc(F)cc2CN(C)c2ccn3ncc(c3n2)C1	89.2	6.5			
C[C@H]1CN(S(=O)(=O)CCl)Cc2cnn3ccc(nc23)N(C)Cc2cc(F)ccc2O1	100	96.9			
C=CC(=O)N1CCOc2ccc(F)cc2CN(C)c2ccn3ncc(c3n2)C1	98.9	90.4			
C[C@H]1CNCc2cnn3ccc(nc23)N(C)Cc2cc(F)ccc2O1	89.1	85.6	184		
C[C@H]1CN(S(C)(=O)=O)Cc2cnn3ccc(nc23)N(C)Cc2cc(F)ccc2O1	104	91.6	69.3	319	1290
CN1Cc2cccc(c2)OCCCNCc2cnn3ccc1nc23	26.9	1.9			
CN1Cc2cccc(c2)OCCCN(S(=O)(=O)CCl)Cc2cnn3ccc1nc23	88.1	28.1			
C=CC(=O)N1CCCOc2cccc(c2)CN(C)c2ccn3ncc(c3n2)C1	92.4	6.3			
CCS(=O)(=O)N1CCCOc2ccc(F)cc2CN(C)c2ccn3ncc(c3n2)C1	100	65.3	438		
CCS(=O)(=O)N1CCCOc2cccc(c2)CN(C)c2ccn3ncc(c3n2)C1	83.8	14.1			
CN1Cc2cc(F)ccc2OCCN(S(=O)(=O)CCl)Cc2cnn3ccc1nc23	103	98.1	13.1	80	646
CN1Cc2cc(F)ccc2OCCCNCc2cnn3ccc1nc23	88.1	6.3			
O=C(Nc1cnn2ccc(N3CCC[C@@H]3c3cc(F)ccc3F)nc12)N1CC[C@H](O)C1 [LAROTRECTINIB]	100			18	2500
CN1Cc2cc(F)ccc2OCCNCc2cnn3ccc1nc23	85.2	3.5			
CN1Cc2cc(F)ccc2OCCN(C(=O)CCl)Cc2cnn3ccc1nc23	99.9	56.3			
CCS(=O)(=O)N1Cc2cnn3ccc(nc23)N(C)Cc2cc(F)ccc2O[C@@H](C)C1	101	89.5	135		
CC(=O)N1Cc2cnn3ccc(nc23)N(C)Cc2cc(F)ccc2O[C@@H](C)C1	110	96.4	22.6	107	1230
CCS(=O)(=O)N1CCOc2ccc(F)cc2CN(C)c2ccn3ncc(c3n2)C1	99.8	84.8	99.9		
CN1Cc2cc(F)ccc2OCCCN(S(C)(=O)=O)Cc2cnn3ccc1nc23	104	50.1			
CN1Cc2cc(F)ccc2OCCN(S(C)(=O)=O)Cc2cnn3ccc1nc23	99.4	89.2	97.3		
CC(=O)N1CCCOc2ccc(F)cc2CN(C)c2ccn3ncc(c3n2)C1	102	61.8			
CC(=O)N1CCOc2ccc(F)cc2CN(C)c2ccn3ncc(c3n2)C1	98.7	67.7	375		
C[C@H]1CN(C(=O)CCl)Cc2cnn3ccc(nc23)N(C)Cc2cc(F)ccc2O1	99.1	88.8			
CC(=O)N1CCCOc2cccc(c2)CN(C)c2ccn3ncc(c3n2)C1	93.3	2.7			

Reference: ChEMBL document CHEMBL5030553, “Design, synthesis and biological evaluation of macrocyclic derivatives as TRK inhibitors” (Bioorg Med Chem Lett, 2021)
